Data on four compounds can be found in patent US20070191291A1, “Compound antibacterial drugs comprising n-acetyl-d-glucosamine” (priority 2003, published 2007).

Experiment [1] deals with rats infected and not infected by Bacillus typhi murium. Format: in vivo, Wistar rats. The following applies: rats infected or not by Bacillus typhi murium, consecutive week, 15 rats per group.
Experiment [2] concerns irritable bowel syndrome (IBS) caused by bacterial CGC. Put plainly: Test Example 5: preventing irritable bowel syndrome (IBS) caused by bacterial CGC. It counts as in vivo, rats. The following applies: for CGCs in the rat stools after one week of drug withdrawal / CGCs in the stools of the rats: rats, effective dosage for consecutive 10 days, 30 rats per group; for CGCs in the stools of the rats: stools observed during administration and within 1 week after drug withdrawal. The text has this:
On this basis, the rats were subjected to stimulations such as electric stimulation, intragastric administration with fructus zanthoxyli water, cold, constraint etc. in order to induce IBS, and the incidence rates of IBS of two groups were observed.

The next experiment deals with Citro Bacter. Put plainly: Test Example 2: preventing formation of bacterial CGC in vitro (K-B method). Format: cell-based. How it is done:
(§1) E. coli (No. 33310, purchased from Chengdu Institute of Biological Products, the Ministry of Public Health) was used in the tests. Grid design was performed by using antibiotic with different concentrations and N-acetyl-D-glucosamine having an amount of from 10 mg to 300 mg. Streak plates were conducted separately, and K-B method was employed for drugs. Colonies at marginal part of drug inhibition zone were picked and were observed under microscope. If cell length was more than 50 μm and cell number was more than 5 in each visual field, it was deemed as CGC positive and was marked with “+”; while if cell length was not greater than 50 μm and cell number was within the range from 0 to 4 in each visual field, it was deemed as CGC negative and was marked with “−”. At this time, the ratio of two substances was called “effective ratio”.
(§2) Effects tests of compound preparation comprising N-acetyl-D-glucosamine and antibiotics for preventing the formation of bacterial CGC in vitro.
(§3) The tests were carried out in vitro, wherein gram-negative amphimicrodes, gram-negative anaerobes and gram-positive aerobes were separately coated on streak plates, test drugs and control drugs were separately dissolved with same volume of sterile water for injection, 10 μl of each drug was used for preparing drug-sensitive paper, K-B method was employed in the tests of drugs, and the inhibition situations of CGC formation were observed.

The next experiment relates to E. coli. Described as above. Format: cell-based. How it is done:
as §1, §2, §3

For another experiment, the system named is Diphtheroid bacillus. Described as above. Format: cell-based. How it is done:
as §1, §2, §3

For the next experiment, the system named is Bacteroides fragilis. The experiment is described as above. It counts as cell-based. How it is done:
as §1, §2, §3

In a further experiment the test system is Klebsiella. The description is as above. Format: cell-based. How it is done: as §1, §2, §3
For a further experiment, the system named is Nucleic Acid Bacter. Described as above. It counts as cell-based. How it is done:
as §1, §2, §3

Another experiment deals with Bacillus cereus. The experiment is described as above. It counts as cell-based. How it is done: as §1, §2, §3
The next experiment relates to Bacillus proteus. Described as above. Format: cell-based. How it is done: as §1, §2, §3
The subject of a further experiment is Listeria. Described as above. Format: cell-based. How it is done: as §1, §2, §3
[3] abbreviates: first of three values given respectively: electric stimulation.
The mark [4] stands for this setting: second of three values given respectively: intragastric administration with fructus zanthoxyli water.
[5] abbreviates: third of three values given respectively: cold, constraint etc.
Where [6] appears, read: compound preparation N-acetyl-D-glucosamine (100 mg) and chloramphenicol (400 mg), control chloramphenicol (400 mg).
The mark [7] stands for this setting: compound injection 100 mg N-acetyl-D-glucosamine + 300 mg kanamycin, control kanamycin same dose.
Setting [8] is: compound preparation N-acetyl-D-glucosamine (100 mg) and lincomycin (400 mg), control lincomycin (400 mg).
The mark [9] stands for this setting: compound preparation N-acetyl-D-glucosamine (50 mg) and tetracycline (150 mg), control tetracycline (150 mg).

SMILES strings stand for the structures. Read-outs that look alike come from different tables or passages of the source.

For `O=C(N[C@H](CO)[C@H](O)c1ccc([N+](=O)[O-])cc1)C(Cl)Cl` [Chloramphenicol, chloramphenicol], in [1] (N-acetyl-D-glucosamine (100 mg)+chloramphenical (400 mg) vs only chloramphenicol), the “positive rates of stool CGC and intestinal mucosa CGC” value (from here on “positive rates”) is 100%. Also, the “incidence rate of IBS” value in experiment [2] (setting [3]), in experiment [2] (setting [4]) and in [2] (setting [5]) was 33% each time. In addition, in [2], the “CGCs in the rat stools after one week of drug withdrawal” value (“CGCs in the rat stools after one week” for short) is “still present”. The “CGCs in the stools of the rats” value in experiment [2] is on record as “a large amount of CGCs appeared”. Besides, the CGC formation result was “+ (If cell length was more than 50 μm and cell number was more than 5 in each visual field, it was deemed as CGC positive and was marked with “+”)” in the experiment on Citro Bacter (setting [6]); “+ (If cell length was more than 50 μm and cell number was more than 5 in each visual field, it was deemed as CGC positive and was marked with “+”)” with E. coli (setting [6]); “+ (If cell length was more than 50 μm and cell number was more than 5 in each visual field, it was deemed as CGC positive and was marked with “+”)” with Diphtheroid bacillus (setting [6]); “+ (If cell length was more than 50 μm and cell number was more than 5 in each visual field, it was deemed as CGC positive and was marked with “+”)” in the experiment with Bacteroides fragilis (setting [6]); “+ (If cell length was more than 50 μm and cell number was more than 5 in each visual field, it was deemed as CGC positive and was marked with “+”)” in the experiment on Klebsiella (setting [6]); “+ (If cell length was more than 50 μm and cell number was more than 5 in each visual field, it was deemed as CGC positive and was marked with “+”)” in the experiment with Nucleic Acid Bacter (setting [6]). Besides, the CGC formation result in the experiment with Bacillus cereus (setting [6]) is “+ (If cell length was more than 50 μm and cell number was more than 5 in each visual field, it was deemed as CGC positive and was marked with “+”)”; with Bacillus proteus (setting [6]) it was “+ (If cell length was more than 50 μm and cell number was more than 5 in each visual field, it was deemed as CGC positive and was marked with “+”)”; in the experiment on Listeria (setting [6]), “+ (If cell length was more than 50 μm and cell number was more than 5 in each visual field, it was deemed as CGC positive and was marked with “+”)”.

As to `NC[C@H]1O[C@H](O[C@H]2[C@H](O)[C@@H](O[C@H]3O[C@H](CO)[C@@H](O)[C@H](N)[C@H]3O)[C@H](N)C[C@@H]2N)[C@H](O)[C@@H](O)[C@@H]1O` [Kanamycin, kanamycin], in [1] (N-acetyl-D-glucosamine (100 mg)+kanamycin (200 mg) vs only kanamycin), the “positive rates” value was determined as 100%. Also, the “incidence rate of IBS” value in experiment [2] (setting [3]), in experiment [2] (setting [4]) and in experiment [2] (setting [5]) was 33% each time. In addition, the CGC formation entry in the experiment with Citro Bacter (setting [7]) is “+ (If cell length was more than 50 μm and cell number was more than 5 in each visual field, it was deemed as CGC positive and was marked with “+”)”; with E. coli (setting [7]), “+ (If cell length was more than 50 μm and cell number was more than 5 in each visual field, it was deemed as CGC positive and was marked with “+”)”; in the experiment with Diphtheroid bacillus (setting [7]) it was “+ (If cell length was more than 50 μm and cell number was more than 5 in each visual field, it was deemed as CGC positive and was marked with “+”)”; in the experiment on Bacteroides fragilis (setting [7]) it was “+ (If cell length was more than 50 μm and cell number was more than 5 in each visual field, it was deemed as CGC positive and was marked with “+”)”; with Klebsiella (setting [7]), “+ (If cell length was more than 50 μm and cell number was more than 5 in each visual field, it was deemed as CGC positive and was marked with “+”)”; in the experiment with Nucleic Acid Bacter (setting [7]), “+ (If cell length was more than 50 μm and cell number was more than 5 in each visual field, it was deemed as CGC positive and was marked with “+”)”. The CGC formation result with Bacillus cereus (setting [7]) was “+ (If cell length was more than 50 μm and cell number was more than 5 in each visual field, it was deemed as CGC positive and was marked with “+”)”; in the experiment with Bacillus proteus (setting [7]) it was “+ (If cell length was more than 50 μm and cell number was more than 5 in each visual field, it was deemed as CGC positive and was marked with “+”)”; in the experiment with Listeria (setting [7]), “+ (If cell length was more than 50 μm and cell number was more than 5 in each visual field, it was deemed as CGC positive and was marked with “+”)”.

For the compound `CCC[C@@H]1C[C@@H](C(=O)N[C@@H]([C@H]2O[C@H](SC)[C@H](O)[C@@H](O)[C@H]2O)[C@@H](C)O)N(C)C1` [Lincomycin, lincomycin], in experiment [1] (N-acetyl-D-glucosamine (100 mg)+lincomycin (400 mg) vs only lincomycin), the “positive rates” value turned out to be 100%. Moreover, the “incidence rate of IBS” value in experiment [2] (setting [3]), in experiment [2] (setting [4]) and in experiment [2] (setting [5]) was 33% in each case. Also, in experiment [2], the “CGCs in the rat stools after one week” value is given as “still present”. Moreover, the “CGCs in the stools of the rats” value in experiment [2] was “a large amount of CGCs appeared”. For the same compound, the CGC formation result in the experiment on Citro Bacter (setting [8]) is “+ (If cell length was more than 50 μm and cell number was more than 5 in each visual field, it was deemed as CGC positive and was marked with “+”)”; in the experiment with E. coli (setting [8]), “+ (If cell length was more than 50 μm and cell number was more than 5 in each visual field, it was deemed as CGC positive and was marked with “+”)”; in the experiment on Diphtheroid bacillus (setting [8]), “+ (If cell length was more than 50 μm and cell number was more than 5 in each visual field, it was deemed as CGC positive and was marked with “+”)”; in the experiment on Bacteroides fragilis (setting [8]), “+ (If cell length was more than 50 μm and cell number was more than 5 in each visual field, it was deemed as CGC positive and was marked with “+”)”; with Klebsiella (setting [8]), “+ (If cell length was more than 50 μm and cell number was more than 5 in each visual field, it was deemed as CGC positive and was marked with “+”)”; in the experiment on Nucleic Acid Bacter (setting [8]) it was “+ (If cell length was more than 50 μm and cell number was more than 5 in each visual field, it was deemed as CGC positive and was marked with “+”)”. Further, the CGC formation entry was “+ (If cell length was more than 50 μm and cell number was more than 5 in each visual field, it was deemed as CGC positive and was marked with “+”)” in the experiment on Bacillus cereus (setting [8]); “+ (If cell length was more than 50 μm and cell number was more than 5 in each visual field, it was deemed as CGC positive and was marked with “+”)” in the experiment on Bacillus proteus (setting [8]); “+ (If cell length was more than 50 μm and cell number was more than 5 in each visual field, it was deemed as CGC positive and was marked with “+”)” in the experiment with Listeria (setting [8]).

Regarding `CN(C)C1C(O)=C(C(N)=O)C(=O)C2(O)C(O)=C3C(=O)c4c(O)cccc4C(C)(O)C3CC12` (stereo not shown) [Tetracyclin, tetracycline], the “positive rates” value in experiment [1] (N-acetyl-D-glucosamine (150 mg)+tetracycline (150 mg) vs only tetracycline) stood at 100%. For the same compound, the “incidence rate of IBS” value in [2] (setting [3]), in experiment [2] (setting [4]) and in experiment [2] (setting [5]) was 33% throughout. For the same compound, the “CGCs in the rat stools after one week” value in experiment [2] is on record as “still present”. The “CGCs in the stools of the rats” value in experiment [2] is listed as “a large amount of CGCs appeared”. Moreover, the CGC formation entry in the experiment on Citro Bacter (setting [9]) was “+ (If cell length was more than 50 μm and cell number was more than 5 in each visual field, it was deemed as CGC positive and was marked with “+”)”; in the experiment on E. coli (setting [9]), “+ (If cell length was more than 50 μm and cell number was more than 5 in each visual field, it was deemed as CGC positive and was marked with “+”)”; with Diphtheroid bacillus (setting [9]) it was “+ (If cell length was more than 50 μm and cell number was more than 5 in each visual field, it was deemed as CGC positive and was marked with “+”)”; in the experiment on Bacteroides fragilis (setting [9]), “+ (If cell length was more than 50 μm and cell number was more than 5 in each visual field, it was deemed as CGC positive and was marked with “+”)”; with Klebsiella (setting [9]), “+ (If cell length was more than 50 μm and cell number was more than 5 in each visual field, it was deemed as CGC positive and was marked with “+”)”; with Nucleic Acid Bacter (setting [9]), “+ (If cell length was more than 50 μm and cell number was more than 5 in each visual field, it was deemed as CGC positive and was marked with “+”)”. Also, the CGC formation result in the experiment with Bacillus cereus (setting [9]) is “+ (If cell length was more than 50 μm and cell number was more than 5 in each visual field, it was deemed as CGC positive and was marked with “+”)”; in the experiment on Bacillus proteus (setting [9]) it was “+ (If cell length was more than 50 μm and cell number was more than 5 in each visual field, it was deemed as CGC positive and was marked with “+”)”; in the experiment with Listeria (setting [9]) it was “+ (If cell length was more than 50 μm and cell number was more than 5 in each visual field, it was deemed as CGC positive and was marked with “+”)”.
